Laboratory results taken from patent publication US20100286074A1, “PHARMACEUTICAL USE OF G[…] MIXTURE THEREOF AND PHARMACEUTICAL COMPOSITION OF G[…] USE THEREOF” (LIMIN PHARMACEUTICAL FACTORY, LIVZON GROUP, priority 2007, published 2010).
Where a name gives a salt, the structure may show the parent alone.

Key:
[1] = tested on: platelet aggregation induced by ADP; assay: Platelet aggregation induced by ADP in patients after drug administration; assay type: in vivo, human; conditions: for platelet aggregation rate: patients, x ± s
Description: • a. The patients with chronic cardiovascular and cerebrovascular diseases, and the course of disease >1 month; • b.
• a. The patients attacked by acute myocardial infarction or stroke in one month; • b. […] The patients with medical history of serious liver, kidney disease, or digestive tract or other organ bleeding; • d. The persons with reduced granulocytes or platelets.
(§1) The course for both experimental group and control group are four weeks.
(§2) The basic drugs taken by the patients for treating their cardiovascular and cerebrovascular diseases were maintained the same in terms of dosage and usage during the period for observation, but they are forbidden to take anticoagulant drug, such as aspirin, dipyridamole or Phenylbutazone. The administration was stopped at the end of 4th week and re-examination was performed to observe the change of indexes.
Induction experiment of two different concentrations of ADP (0.5 μmol/L and 1.0 μmol/L) was performed and re-examination was conducted on the 2nd and 4th weekends.
In Table 1, 0.5 and 1.0 represent the induction rate of 0.5 μmol/L of ADP and 1.0 μmol/L of ADP respectively.

[2] = Laboratory examination: liver function, blood and urine routine; assay type: in vivo, human
[3] = Adverse reactions in patients
Description: as §1

[4] = tested on: bleeding time; assay: Bleeding time (Duke Method) in patients; assay type: in vivo, human
Protocol: as §2
(§3) Duke Method and Test Tube Method were used for determination respectively. The same method was used for the same case. The values are compared before and after the determination, and the changing values are calculated.

[5] = tested on: clotting time; assay: Clotting time (Test Tube Method) in patients; assay type: in vivo, human
Protocol: as §2, §3

[6] = four weeks of one tablet per day oral, induction with 0.5 μmol/L ADP
[7] = four weeks of one tablet per day oral, induction with 1.0 μmol/L ADP
[8] = two weeks of one tablet per day oral, induction with 0.5 μmol/L ADP
[9] = two weeks of one tablet per day oral, induction with 1.0 μmol/L ADP
[10] = after taking drug (four-week course)
[11] = before taking drug (baseline of the group)

`Clc1ccccc1CN1CCc2sccc2C1` [TCP, ticlopidine hydrochloride, reference compound] gave a platelet aggregation rate [1, 6] of 32.8 ± 23.1%, a platelet aggregation rate [1, 7] of 37.2 ± 25.4% and a platelet aggregation rate [1, 8] of 28.3 ± 23.8%. The platelet aggregation rate [1, 9] was 35.3 ± 20.8%, the “liver function, blood and urine routine” value ([2]; in vivo) was “do not change significantly” and the “cases with skin rash, hoarseness and mild dysphagia” value ([3]; human, in vivo, 2 weeks) was 2 cases. For the same compound, the adverse reactions incidence ([3]; human, in vivo, 4 weeks) was 11.87%, the “incidence of conjunctiva bleeding, purpura and bleeding spot on skin” value ([3]; human, in vivo, 4 weeks) was 3.45% and the bleeding time [4, 10] was 2.29 ± 1.40 min. It also gave a bleeding time [4, 11] of 1.73 ± 1.35 min.

In the case of `CC(C)=CCC[C@](C)(O)[C@H]1CC[C@]2(C)[C@@H]1[C@H](O)C[C@@H]1[C@@]3(C)CC[C@H](O)C(C)(C)[C@@H]3[C@@H](O[C@@H]3O[C@H](CO)[C@@H](O)[C@H](O)[C@H]3O)C[C@]12C` [ginsenoside Rh1], the “platelet aggregation rate compared with the control group (TCP)” value ([1]; after taking drugs for 4 weeks) is reported as “smaller than that of the control group obviously”, the platelet aggregation rate [1, 6] is reported as 28.8 ± 23.4% and the platelet aggregation rate [1, 7] is reported as 34.3 ± 25.6%. The platelet aggregation rate [1, 8] was 28.7 ± 22.5%, the platelet aggregation rate [1, 9] was 35.4 ± 23.4% and the “liver function, blood and urine routine” value ([2]; before taking drugs vs after taking drugs for 4 weeks, all within normal limits) was “do not change significantly”. The adverse reactions incidence ([3]; four-week course, mainly dizziness, nausea, conjunctiva bleeding and bleeding spot on skin) was 6.86%, the clotting time [5, 10] was 7.83 ± 2.55 min and the clotting time [5, 11] was 7.17 ± 2.59 min. For the same compound, the bleeding time [4, 10] was 1.89 ± 1.11 min and the bleeding time [4, 11] was 1.72 ± 1.20 min.
